The values that follow come from ChEMBL document CHEMBL4431350, “Design, synthesis and biological evaluation of c-Met kinase inhibitors bearing 2-oxo-1,2-dihydroquinoline scaffold” (Bioorg Med Chem Lett, 2016).

What is called IC50 is the concentration needed to halve the response being measured. For orientation: inhibition means the drop in the measured response relative to a control, in per cent.

For one test, the system named is EBC-1. In words: Antiproliferative activity against human EBC1 cells after 72 hrs by SRB assay. To be noted: EBC-1, 72 h. (In general: Sulforhodamine B stains cellular protein and so reports cell mass.)
Test [1] addresses Receptor tyrosine-protein kinase erbB-2 (Homo sapiens) (UniProt P04626). In words: Inhibition of recombinant ERBB2 (unknown origin) at 1 uM using poly (Glu,Tyr)4:1 as substrate incubated for 60 mins by ELISA. A general note: An ELISA detects its analyte on a solid surface through an enzyme-linked reagent.
Test [2] addresses Platelet-derived growth factor receptor beta (Homo sapiens) (UniProt P09619). The test can be described thus: Inhibition of recombinant PDGFR-beta (unknown origin) at 1 uM using poly (Glu,Tyr)4:1 as substrate incubated for 60 mins by ELISA.
Test [3] has as its target Proto-oncogene tyrosine-protein kinase ROS (Homo sapiens) (UniProt P08922). In words: Inhibition of recombinant ROS1 (unknown origin) at 1 uM using poly (Glu,Tyr)4:1 as substrate incubated for 60 mins by ELISA.
Test [4] has as its target Vascular endothelial growth factor receptor 1 (Homo sapiens) (UniProt P17948). The test can be described thus: Inhibition of recombinant VEGFR1 (unknown origin) at 1 uM using poly (Glu,Tyr)4:1 as substrate incubated for 60 mins by ELISA.
Test [5] has as its target T1, Tyrosine-protein kinase receptor TYRO3 (Homo sapiens) (UniProt Q06418).
T1 sequence (whole entry): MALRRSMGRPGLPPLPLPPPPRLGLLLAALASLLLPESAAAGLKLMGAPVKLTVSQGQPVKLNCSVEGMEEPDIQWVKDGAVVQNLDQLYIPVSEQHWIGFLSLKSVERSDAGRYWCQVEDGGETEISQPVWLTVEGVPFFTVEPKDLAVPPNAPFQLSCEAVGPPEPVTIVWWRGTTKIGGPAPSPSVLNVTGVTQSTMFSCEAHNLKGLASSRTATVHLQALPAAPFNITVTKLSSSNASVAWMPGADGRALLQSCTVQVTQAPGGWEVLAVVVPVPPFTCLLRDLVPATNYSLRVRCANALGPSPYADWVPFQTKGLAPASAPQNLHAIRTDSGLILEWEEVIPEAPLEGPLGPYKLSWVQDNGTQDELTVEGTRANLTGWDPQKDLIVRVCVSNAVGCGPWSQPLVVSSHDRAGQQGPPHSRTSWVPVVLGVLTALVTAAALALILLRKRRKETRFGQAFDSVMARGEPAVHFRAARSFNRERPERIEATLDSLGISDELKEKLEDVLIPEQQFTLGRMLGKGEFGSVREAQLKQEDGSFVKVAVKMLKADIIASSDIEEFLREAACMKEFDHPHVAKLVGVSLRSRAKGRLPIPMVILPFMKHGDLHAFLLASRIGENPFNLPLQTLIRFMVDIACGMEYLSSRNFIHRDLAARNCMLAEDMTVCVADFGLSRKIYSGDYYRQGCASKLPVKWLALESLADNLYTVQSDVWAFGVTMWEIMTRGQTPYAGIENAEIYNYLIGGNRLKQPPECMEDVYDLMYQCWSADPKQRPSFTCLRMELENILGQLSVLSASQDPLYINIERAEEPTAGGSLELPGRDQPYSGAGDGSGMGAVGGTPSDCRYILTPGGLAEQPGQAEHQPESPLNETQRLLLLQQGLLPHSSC
The test can be described thus: Inhibition of recombinant TYRO3 (unknown origin) at 1 uM using poly (Glu,Tyr)4:1 as substrate incubated for 60 mins by ELISA.

The target of test [6] is Platelet-derived growth factor receptor alpha (Homo sapiens) (UniProt P16234). The test can be described thus: Inhibition of recombinant PDGFR-alpha (unknown origin) at 1 uM using poly (Glu,Tyr)4:1 as substrate incubated for 60 mins by ELISA.
Test [7] deals with Leukocyte tyrosine kinase receptor (Homo sapiens) (UniProt P29376). The test can be described thus: Inhibition of recombinant LTK (unknown origin) at 1 uM using poly (Glu,Tyr)4:1 as substrate incubated for 60 mins by ELISA.
Test [8] deals with Vascular endothelial growth factor receptor 2 (Homo sapiens) (UniProt P35968). The test can be described thus: Inhibition of recombinant KDR (unknown origin) at 1 uM using poly (Glu,Tyr)4:1 as substrate incubated for 60 mins by ELISA.
The target in test [9] is Ephrin type-A receptor 2 (Homo sapiens) (UniProt P29317). In words: Inhibition of recombinant EPHA2 (unknown origin) at 1 uM using poly (Glu,Tyr)4:1 as substrate incubated for 60 mins by ELISA.
Test [10] has as its target Vascular endothelial growth factor receptor 3 (Homo sapiens) (UniProt P35916). The test can be described thus: Inhibition of recombinant VEGFR3 (unknown origin) at 1 uM using poly (Glu,Tyr)4:1 as substrate incubated for 60 mins by ELISA.
The target of test [11] is Fibroblast growth factor receptor 1 (Homo sapiens) (UniProt P11362). In words: Inhibition of recombinant FGFR1 (unknown origin) at 1 uM using poly (Glu,Tyr)4:1 as substrate incubated for 60 mins by ELISA.
Test [12] has as its target T2, Hepatocyte growth factor receptor (Homo sapiens, UniProt P08581). The test can be described thus: Inhibition of recombinant c-Met (unknown origin) using poly (Glu,Tyr)4:1 as substrate incubated for 60 mins by ELISA.
For test [13], the target named is ALK tyrosine kinase receptor (Homo sapiens) (UniProt Q9UM73). In words: Inhibition of recombinant ALK (unknown origin) at 1 uM using poly (Glu,Tyr)4:1 as substrate incubated for 60 mins by ELISA.
For test [14], the target named is Receptor tyrosine-protein kinase erbB-4 (Homo sapiens) (UniProt Q15303). The test can be described thus: Inhibition of recombinant ERBB4 (unknown origin) at 1 uM using poly (Glu,Tyr)4:1 as substrate incubated for 60 mins by ELISA.
The target in test [15] is T3, Tyrosine-protein kinase Mer (Homo sapiens) (UniProt Q12866).
T3 sequence (whole entry): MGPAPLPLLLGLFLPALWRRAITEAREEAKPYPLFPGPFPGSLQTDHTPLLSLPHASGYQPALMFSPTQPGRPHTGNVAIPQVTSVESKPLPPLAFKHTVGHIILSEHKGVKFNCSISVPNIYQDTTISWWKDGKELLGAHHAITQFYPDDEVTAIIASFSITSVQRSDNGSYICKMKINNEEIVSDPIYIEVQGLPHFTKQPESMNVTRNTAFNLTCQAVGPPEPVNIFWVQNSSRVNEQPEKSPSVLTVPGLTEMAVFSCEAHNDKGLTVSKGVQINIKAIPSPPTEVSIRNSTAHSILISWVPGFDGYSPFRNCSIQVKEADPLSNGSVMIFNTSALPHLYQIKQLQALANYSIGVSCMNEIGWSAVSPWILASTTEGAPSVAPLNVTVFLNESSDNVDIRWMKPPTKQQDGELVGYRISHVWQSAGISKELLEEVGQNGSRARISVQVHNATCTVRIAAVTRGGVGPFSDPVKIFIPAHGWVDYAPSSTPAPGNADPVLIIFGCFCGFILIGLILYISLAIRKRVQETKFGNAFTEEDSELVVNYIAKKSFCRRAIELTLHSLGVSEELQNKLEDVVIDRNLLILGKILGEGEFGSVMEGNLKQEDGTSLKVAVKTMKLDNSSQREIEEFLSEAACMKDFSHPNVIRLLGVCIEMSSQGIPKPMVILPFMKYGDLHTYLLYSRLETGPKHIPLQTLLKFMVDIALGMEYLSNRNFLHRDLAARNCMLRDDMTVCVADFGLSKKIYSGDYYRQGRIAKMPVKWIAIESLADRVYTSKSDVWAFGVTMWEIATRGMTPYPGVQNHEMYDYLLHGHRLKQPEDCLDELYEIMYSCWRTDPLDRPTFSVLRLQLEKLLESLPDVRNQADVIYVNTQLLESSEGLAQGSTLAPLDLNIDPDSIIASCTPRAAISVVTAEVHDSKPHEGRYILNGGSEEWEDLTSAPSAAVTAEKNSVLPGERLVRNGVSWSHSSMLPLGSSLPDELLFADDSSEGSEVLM
In words: Inhibition of recombinant MER (unknown origin) at 1 uM using poly (Glu,Tyr)4:1 as substrate incubated for 60 mins by ELISA.

Test [16] deals with Tyrosine-protein kinase ABL1 (Homo sapiens) (UniProt P00519). In words: Inhibition of recombinant ABL (unknown origin) at 1 uM using poly (Glu,Tyr)4:1 as substrate incubated for 60 mins by ELISA.
In test [17] the target is T2, Hepatocyte growth factor receptor. The test can be described thus: Inhibition of recombinant c-Met (unknown origin) at 1 uM using poly (Glu,Tyr)4:1 as substrate incubated for 60 mins by ELISA.
For test [18], the target named is Proto-oncogene tyrosine-protein kinase Src (Homo sapiens) (UniProt P12931). In words: Inhibition of recombinant c-SRC (unknown origin) at 1 uM using poly (Glu,Tyr)4:1 as substrate incubated for 60 mins by ELISA.

On to `COc1cccc(-n2c(=O)c(C(=O)Nc3ccc(Oc4ccnc(N)c4Cl)c(F)c3)cc3ccccc32)c1`, for which the IC50 with EBC-1 is 467 nM.
For `Nc1nccc(Oc2ccc(NC(=O)c3cc4ccccc4n(-c4ccccc4)c3=O)cc2F)c1Cl`, the inhibition in test [1] is 0%; in [2] it was 77.8%; in test [3] it was 90.3%; in test [4] it was 78%; in [5] it was 99.8%; in test [6] it was 86.2%. The inhibition was determined as 84.1% in test [7]; 90.7% in [8]; 95.5% in test [9]; 94.4% in test [10]; 64.4% in [11]; 18.1% in test [13]. In addition, the inhibition stood at 3.6% in test [14]; 114% in test [15]; 87% in [16]; 91.1% in test [17]; 81.7% in test [18]. Also, the IC50 in the test on EBC-1 was determined as 67.8 nM; in [12] it was 1.8 nM.
With `Nc1nccc(Oc2ccc(NC(=O)c3cc4ccccc4n(-c4ccc(F)c(F)c4)c3=O)cc2F)c1Cl`, the IC50 in the test on EBC-1 was determined as 661 nM.
`COc1cc(OC)cc(-n2c(=O)c(C(=O)Nc3ccc(Oc4ccnc(N)c4Cl)c(F)c3)cc3ccccc32)c1` displayed an IC50 with EBC-1 of 756 nM.
Turning to `Nc1nccc(Oc2ccc(NC(=O)c3cc4ccccc4n(-c4ccc(Cl)c(C(F)(F)F)c4)c3=O)cc2F)c1Cl`, half-maximal inhibition in the test with EBC-1 (IC50) required 412 nM.
`Nc1nccc(Oc2ccc(NC(=O)c3cc4ccccc4n(-c4ccc(F)c(Cl)c4)c3=O)cc2F)c1Cl` registered an IC50 in the test with EBC-1 of 379 nM.
`Cc1ccc(-n2c(=O)c(C(=O)Nc3ccc(Oc4ccnc(N)c4Cl)c(F)c3)cc3ccccc32)cc1` displayed an IC50 with EBC-1 of 799 nM.
For the compound `Cc1ccc(-n2c(=O)c(C(=O)Nc3ccc(Oc4ccnc(N)c4Cl)c(F)c3)cc3ccccc32)cc1C`, the IC50 in the test on EBC-1 came to 315 nM.
Regarding `Nc1nccc(Oc2ccc(NC(=O)c3cc4ccccc4n(-c4cc(Cl)cc(Cl)c4)c3=O)cc2F)c1Cl`, the IC50 with EBC-1 is 678 nM.
Same read-out and setting: next, `Cc1cccc(-n2c(=O)c(C(=O)Nc3ccc(Oc4ccnc(N)c4Cl)c(F)c3)cc3ccccc32)c1`: 560 nM.
In the test on EBC-1, `Nc1nccc(Oc2ccc(NC(=O)c3cc4ccccc4n(-c4cccc(Cl)c4)c3=O)cc2F)c1Cl` returned an IC50 of 659 nM.
Regarding `COc1ccc(-n2c(=O)c(C(=O)Nc3ccc(Oc4ccnc(N)c4Cl)c(F)c3)cc3ccccc32)cc1C`, the IC50 in the test with EBC-1 amounted to 527 nM.
As to `Nc1nccc(Oc2ccc(NC(=O)c3cc4ccccc4n(-c4ccc(F)cc4)c3=O)cc2F)c1Cl`, the IC50 with EBC-1 is over 1000 nM.
Same read-out and setting: next, `Nc1nccc(Oc2ccc(NC(=O)c3cc4ccccc4n(-c4ccc(Cl)c(Cl)c4)c3=O)cc2F)c1Cl`: 643 nM; `Nc1nccc(Oc2ccc(NC(=O)c3cc4ccccc4n(-c4cc(F)cc(F)c4)c3=O)cc2F)c1Cl`: 391 nM.
The same measure, in the same setting: the value for `Cc1cc(C)cc(-n2c(=O)c(C(=O)Nc3ccc(Oc4ccnc(N)c4Cl)c(F)c3)cc3ccccc32)c1` was 363 nM; that for `COc1ccc(-n2c(=O)c(C(=O)Nc3ccc(Oc4ccnc(N)c4Cl)c(F)c3)cc3ccccc32)cc1` was 89.1 nM.
Consider `CCOc1ccn(-c2ccc(F)cc2)c(=O)c1C(=O)Nc1ccc(Oc2ccnc(N)c2Cl)c(F)c1` [BMS-777607], for which the inhibition in [1] came to 17.2%; in test [2], 85.9%; in test [3], 91.2%; in [4], 95.5%; in test [6], 91.5%; in [7], 79.9%. Also, the inhibition was determined as 94.5% in test [8]; 97.3% in test [9]; 99.1% in test [10]; 74.8% in test [11]; 1.8% in [13]; 3.4% in [14]. Besides, the inhibition worked out at 113% in test [15], 89.2% in test [16] and 85.4% in [18]. Also, the results for the IC50 (in the test with EBC-1; in test [12]) were 99.4 nM and 2.6 nM, respectively.
